According to article PMC7287882, “Dual miRNases for Triple Incision of miRNA Target: Design Concept and Catalytic Performance” (Molecules, 2020):

How the values were obtained:
miR-17 = test: Ribonuclease activity assay at different concentrations of KCl; format: biochemical; conditions: miRNA 1 µM, DC 20 µM, 37 °C, 48 h; for Cleavage: 20 mM Tris-HCl pH 7.8, 8 mM MgCl2, 1 mM DTT, 0.02 mg/mL BSA, mean ± s.e.
Description: Potassium ions play an important role in the regulation of cell homeostasis by maintaining the membrane potential, cell volume and pH, and may also have an influence on the performance of artificial ribonucleases. […] In order to understand the effect of K^+ ions on the efficiency of miRNA cleavage by DCs, miR-17 was incubated with the matching DC in the buffer containing 50 mM Tris-HCl, pH 7.0, 1 mM DTT, 0.02 mg/mL BSA and different K^+ concentration varied from 0 to 400 mM. […] In the absence of potassium and at a concentration of more than 200 mM, the efficiency of miRNA cleavage was 2-fold reduced.
Reaction with different concentration of KCl was performed in reaction mixtures (8 µL) containing 320 cpm (Cherenkov’s counting) of [^32P]-miR-17, 1 μM unlabeled miRNA, 20 µM of miRNA-17-DC in buffers contained 20 mM Tris-HCl, pH 7.8, 8 mM MgCl2, 1 mM DTT, 0.02 mg/mL BSA, and KCl at concentration 0, 40, 100, 200 or 400 mM at 37 °C for 48 h. RNA cleavage products were collected and analyzed as described above.

miR-21 = test: Gel-retardation assay, hybridization with miR-21; format: binding; conditions: 37 °C, 45 min, mean of 3
From the text: We carried out a comparative analysis of the hybridization properties of the developed DCs with the corresponding SCs, which were the products of the first stage of the DCs synthesis. As discussed above, each SC consisted of the corresponding oligonucleotide A, which was complementary to the 5′-region of the matching miRNA target, and the catalytic peptide [LRLRG]2, attached to the 5′-end of this oligonucleotide via a thiohexyl linker (linker 2). […] Indeed, the level of binding of DCs to their miRNA targets reached 96, 90, 75, 55% at equimolar concentration (1 μM), and 99, 96, 92 and 69% at 5-fold excess of DCs over miR-17, miR-18a, miR-21 and miR-155, respectively (Figure 2). […]
The reaction mixture (4 µL) containing 50 mM Tris-HCl, pH 7.0, 200 mM KCl and 1 mM EDTA, 100 cpm (Cherenkov’s counting) of [^32P]-miRNA, 1 μM unlabeled miRNA, a conjugate at a concentration ranging from 0.1 to 10 μM was incubated at 37 °C for 45 min and quenched by adding of a loading buffer (20% ficoll, 0.025% bromophenol blue, 0.025% xylene cyanol). […] Formation of the complex miRNA/conjugate was analyzed by electrophoresis in 15% native PAAG at 4 °C. The gels were analyzed using Molecular Imager FX. The extent of binding of conjugate to miRNA was determined as a ratio of radioactivity measured in the complex to the total radioactivity applied onto the gel lane.

Substance	Cleavage (miR-17; K+ 0 mM)	Cleavage (miR-17; K+ 40 mM)	Cleavage (miR-17; K+ 100 mM)	Cleavage (miR-17; K+ 200 mM)	Cleavage (miR-17; K+ 400 mM)	most potent degradation of miRNA-target (miR-17; at 40–100 mM KCl)	level of binding of DC to miRNA target (miR-21; 5-fold excess of DC over miRNA (1 µM), same buffer)	level of binding of DC to miRNA target (miR-21; equimolar, DC 1 µM : miRNA 1 µM, 50 mM Tris-HCl pH 7.0, 200 mM KCl, 1 mM EDTA)
CTACCTGC–linker 1–[GRLRL]2–linker 2–AAGCACTTTG [miRNA-17-DC, Dual oligonucleotide-peptide conjugate targeted to miR-17: catalytic peptide [LRLRG]2 between two 2-aminoadenine-containing oligodeoxyribonucleotides]	13.2±5.0%	22.5±4.3%	26.4±2.0%	13.7±3.5%	14.1±3.8%	approximately 25%		
TCAACATC–linker 1–[GRLRL]2–linker 2–GATAAGCTA [miRNA-21-DC, Dual oligonucleotide-peptide conjugate targeted to miR-21: catalytic peptide [LRLRG]2 between two 2-aminoadenine-containing oligodeoxyribonucleotides]							92%	75%
